The values that follow are results of earlier work, collected in patent US20090274776A1, “Method for the Diagnosis and Treatment of Conditions Involving Aberrant Erythrocyte Potassium Levels” (THE REGENTS OF THE UNIVERSITY OF MICHIGAN, priority 2006, published 2009).

One series relates to RBC. As to conditions: RBC treated with the substance; by activation of IKCa.
The test system of series [1] is endothelium-derived hyperpolarizing factor (EDHF). Conditions: in the presence of apamin.
The target in a further series is T1, KCa in RBC (Homo sapiens, UniProt O15554).
T1 construct: host or cells: red blood cells (endogenous channel)
As to conditions: red blood cells.

As to `Nc1nc2c(nc(Br)n2[C@@H]2O[C@@H]3COP(=O)(O)O[C@H]3[C@H]2O)c(=O)[nH]1` [8Br-cGMP], in the series on RBC, the “K+ efflux in RBC” value is reported as “increased”. With `OC1(c2cccc(Cl)c2)C2=NCCCN2c2ccccc21` (stereo not shown) [Ciclazindol], the EDHF relaxation result in series [1] is given as “abolishes”. In addition, at KCa in RBC, the “effect on KCa in RBC” value was “inhibits”. In the case of `CC1(C)Oc2ccc(C#N)cc2C(N2CCCC2=O)C1O` (stereo not shown) [cromakalim], the “effect on KCa in RBC” value on KCa in RBC was “opens”.
